{
  "source": "patent US20240081328A1",
  "about": "“Use of 4-Nitro-3-(Trifluoromethyl)Phenol in Killing or Controlling Pomacea Canaliculata, Method for Killing or Controlling Pomacea Canaliculata, and Molluscicide” (priority 2021, published 2024)",
  "system": "Pomacea canaliculata",
  "assay": "Immersion test of dilutions in beakers, mortality rate of Pomacea canaliculata",
  "format": "in vivo",
  "details": "for mortality at 0.0039 µg/mL / mortality at 0.0078 µg/mL / mortality at 0.0156 µg/mL / mortality at 0.0312 µg/mL / mortality at 0.0625 µg/mL / mortality at 0.125 µg/mL / mortality at 0.25 µg/mL / mortality at 0.5 µg/mL: Pomacea canaliculata, read-out: Mortality rate (%) of Pomacea canaliculata at different action time (h); for mortality at 0.0039 µg/mL: 0.0039 mg/L; for mortality at 0.0078 µg/mL: 0.0078 mg/L; for mortality at 0.0156 µg/mL: 0.0156 mg/L; for mortality at 0.0312 µg/mL: 0.0312 mg/L; for mortality at 0.0625 µg/mL: 0.0625 mg/L",
  "method": "0.5 mg of 4-nitro-3-(trifluoromethyl)phenol and 0.5 mg of niclosamide were completely dissolved in 1 mL of a dimethyl sulfoxide (DMSO) solution separately, and diluted to 1,000 mL with deaminized water to obtain a 4-nitro-3-(trifluoromethyl)phenol solution with a concentration of 0.5 mg/L and a niclosamide solution with a concentration of 0.5 mg/L.\nThe two solutions were separately diluted into 7 concentrations of dilutions using a doubling dilution method, including 0.25 mg/L, 0.125 mg/L, 0.0625 mg/L, 0.0312 mg/L, 0.0156 mg/L, and 0.0078 mg/L, and 0.0039 mg/L.\n400 mL of the dilutions with different concentrations were separately poured into a 500 mL beaker, 10 Pomacea canaliculata samples were put into the dilution of each concentration, and each bottle mouth was sealed with wire mesh to completely immerse the Pomacea canaliculata in the dilution; clear water was used as a control group.\nThe experimental data were used to calculate the mortality rate of each treatment according to the following formula. Each calculation result was rounded to two decimal places. A formula for calculating the mortality rate was: […]\nIn the formula: P represented the mortality rate, in percentage (%); Σ^Ki represented • the number of dead Pomacea canaliculata, in snails; Σ^Ni represented the total number of treated Pomacea canaliculata, in snails.",
  "note": "Read-outs that look alike come from different tables or passages of the source.",
  "data": [
    {"smiles": "O=C(Nc1ccc([N+](=O)[O-])cc1Cl)c1cc(Cl)ccc1O", "note": "[niclosamide]", "values": [
      {"measurement": "killing of Pomacea canaliculata (in words)", "setting": "0.125 mg/L, within 24 h", "result": "all Pomacea canaliculata died"},
      {"measurement": "killing of Pomacea canaliculata (in words)", "setting": "0.25 mg/L, action time 12 h", "result": "all Pomacea canaliculata died"},
      {"measurement": "killing of Pomacea canaliculata (in words)", "setting": "0.5 mg/L, action time 12 h", "result": "all Pomacea canaliculata died"},
      {"measurement": "mortality at 0.0039 µg/mL", "setting": "action time 0 h", "result": 0, "unit": "%"},
      {"measurement": "mortality at 0.0039 µg/mL", "setting": "action time 12 h", "result": 0, "unit": "%"},
      {"measurement": "mortality at 0.0039 µg/mL", "setting": "action time 24 h", "result": 20, "unit": "%"},
      {"measurement": "mortality at 0.0039 µg/mL", "setting": "action time 36 h", "result": 30, "unit": "%"},
      {"measurement": "mortality at 0.0039 µg/mL", "setting": "action time 48 h", "result": 30, "unit": "%"},
      {"measurement": "mortality at 0.0039 µg/mL", "setting": "action time 60 h", "result": 30, "unit": "%"},
      {"measurement": "mortality at 0.0039 µg/mL", "setting": "action time 72 h", "result": 40, "unit": "%"},
      {"measurement": "mortality at 0.0078 µg/mL", "setting": "action time 0 h", "result": 0, "unit": "%"},
      {"measurement": "mortality at 0.0078 µg/mL", "setting": "action time 12 h", "result": 10, "unit": "%"},
      {"measurement": "mortality at 0.0078 µg/mL", "setting": "action time 24 h", "result": 40, "unit": "%"},
      {"measurement": "mortality at 0.0078 µg/mL", "setting": "action time 36 h", "result": 40, "unit": "%"},
      {"measurement": "mortality at 0.0078 µg/mL", "setting": "action time 48 h", "result": 40, "unit": "%"},
      {"measurement": "mortality at 0.0078 µg/mL", "setting": "action time 60 h", "result": 40, "unit": "%"},
      {"measurement": "mortality at 0.0078 µg/mL", "setting": "action time 72 h", "result": 70, "unit": "%"},
      {"measurement": "mortality at 0.0156 µg/mL", "setting": "action time 0 h", "result": 0, "unit": "%"},
      {"measurement": "mortality at 0.0156 µg/mL", "setting": "action time 12 h", "result": 10, "unit": "%"},
      {"measurement": "mortality at 0.0156 µg/mL", "setting": "action time 24 h", "result": 30, "unit": "%"},
      {"measurement": "mortality at 0.0156 µg/mL", "setting": "action time 36 h", "result": 60, "unit": "%"},
      {"measurement": "mortality at 0.0156 µg/mL", "setting": "action time 48 h", "result": 70, "unit": "%"},
      {"measurement": "mortality at 0.0156 µg/mL", "setting": "action time 60 h", "result": 70, "unit": "%"},
      {"measurement": "mortality at 0.0156 µg/mL", "setting": "action time 72 h", "result": 70, "unit": "%"},
      {"measurement": "mortality at 0.0312 µg/mL", "setting": "action time 0 h", "result": 0, "unit": "%"},
      {"measurement": "mortality at 0.0312 µg/mL", "setting": "action time 12 h", "result": 10, "unit": "%"},
      {"measurement": "mortality at 0.0312 µg/mL", "setting": "action time 24 h", "result": 50, "unit": "%"},
      {"measurement": "mortality at 0.0312 µg/mL", "setting": "action time 36 h", "result": 70, "unit": "%"},
      {"measurement": "mortality at 0.0312 µg/mL", "setting": "action time 48 h", "result": 80, "unit": "%"},
      {"measurement": "mortality at 0.0312 µg/mL", "setting": "action time 60 h", "result": 80, "unit": "%"},
      {"measurement": "mortality at 0.0312 µg/mL", "setting": "action time 72 h", "result": 80, "unit": "%"},
      {"measurement": "mortality at 0.0625 µg/mL", "setting": "action time 0 h", "result": 0, "unit": "%"},
      {"measurement": "mortality at 0.0625 µg/mL", "setting": "action time 12 h", "result": 30, "unit": "%"},
      {"measurement": "mortality at 0.0625 µg/mL", "setting": "action time 24 h", "result": 50, "unit": "%"},
      {"measurement": "mortality at 0.0625 µg/mL", "setting": "action time 36 h", "result": 80, "unit": "%"},
      {"measurement": "mortality at 0.0625 µg/mL", "setting": "action time 48 h", "result": 80, "unit": "%"},
      {"measurement": "mortality at 0.0625 µg/mL", "setting": "action time 60 h", "result": 100, "unit": "%"},
      {"measurement": "mortality at 0.0625 µg/mL", "setting": "action time 72 h", "result": 100, "unit": "%"},
      {"measurement": "mortality at 0.125 µg/mL", "setting": "0.125 mg/L, action time 0 h", "result": 0, "unit": "%"},
      {"measurement": "mortality at 0.125 µg/mL", "setting": "0.125 mg/L, action time 12 h", "result": 90, "unit": "%"},
      {"measurement": "mortality at 0.125 µg/mL", "setting": "0.125 mg/L, action time 24 h", "result": 100, "unit": "%"},
      {"measurement": "mortality at 0.125 µg/mL", "setting": "0.125 mg/L, action time 36 h", "result": 100, "unit": "%"},
      {"measurement": "mortality at 0.125 µg/mL", "setting": "0.125 mg/L, action time 48 h", "result": 100, "unit": "%"},
      {"measurement": "mortality at 0.125 µg/mL", "setting": "0.125 mg/L, action time 60 h", "result": 100, "unit": "%"},
      {"measurement": "mortality at 0.125 µg/mL", "setting": "0.125 mg/L, action time 72 h", "result": 100, "unit": "%"},
      {"measurement": "mortality at 0.25 µg/mL", "setting": "0.25 mg/L, action time 0 h", "result": 0, "unit": "%"},
      {"measurement": "mortality at 0.25 µg/mL", "setting": "0.25 mg/L, action time 12 h", "result": 100, "unit": "%"},
      {"measurement": "mortality at 0.25 µg/mL", "setting": "0.25 mg/L, action time 24 h", "result": 100, "unit": "%"},
      {"measurement": "mortality at 0.25 µg/mL", "setting": "0.25 mg/L, action time 36 h", "result": 100, "unit": "%"},
      {"measurement": "mortality at 0.25 µg/mL", "setting": "0.25 mg/L, action time 48 h", "result": 100, "unit": "%"},
      {"measurement": "mortality at 0.25 µg/mL", "setting": "0.25 mg/L, action time 60 h", "result": 100, "unit": "%"},
      {"measurement": "mortality at 0.25 µg/mL", "setting": "0.25 mg/L, action time 72 h", "result": 100, "unit": "%"},
      {"measurement": "mortality at 0.5 µg/mL", "setting": "0.5 mg/L, action time 0 h", "result": 0, "unit": "%"},
      {"measurement": "mortality at 0.5 µg/mL", "setting": "0.5 mg/L, action time 12 h", "result": 100, "unit": "%"},
      {"measurement": "mortality at 0.5 µg/mL", "setting": "0.5 mg/L, action time 24 h", "result": 100, "unit": "%"},
      {"measurement": "mortality at 0.5 µg/mL", "setting": "0.5 mg/L, action time 36 h", "result": 100, "unit": "%"},
      {"measurement": "mortality at 0.5 µg/mL", "setting": "0.5 mg/L, action time 48 h", "result": 100, "unit": "%"},
      {"measurement": "mortality at 0.5 µg/mL", "setting": "0.5 mg/L, action time 60 h", "result": 100, "unit": "%"},
      {"measurement": "mortality at 0.5 µg/mL", "setting": "0.5 mg/L, action time 72 h", "result": 100, "unit": "%"},
      {"measurement": "mortality rate of Pomacea canaliculata within 72 h", "setting": "concentration of below 0.0312 mg/L, within 72 h", "result": "< 100", "unit": "%"}
    ]}
  ]
}
